From US10399948B2, “Negative allosteric modulators of metabotropic glutamate receptor 3” (Vanderbilt University, priority 2015, dated 2019)
pIC50: −log10 of the molar value.

Tests used:
[1] = target: rat mGlu2 (Rattus norvegicus (Rat), UniProt P31421); assay: mGlu2 Ca2+ flux assay; assay type: cell-based; details: NAM, glutamate EC80; >30,000 = no measurable activity
Description: Gα15 HEK293 cells stably expressing rat mGlu2 were plated in black-walled, clear-bottomed, poly-D-lysine coated 384-well plates in 20 μL of assay medium (DMEM containing 10% dialyzed FBS, 20 mM HEPES, and 1 mM sodium pyruvate) at a density of 12K cells/well. The cells were grown overnight at 37° C. in the presence of 5% CO2. The next day, medium was removed and the cells incubated with 20 μL of […] Fluo-4, AM prepared as a 2.3 mM stock in DMSO and mixed in a 1:1 ratio with 10% (w/v) pluronic acid F-127 and diluted in assay buffer (Hank's balanced salt solution, 20 mM HEPES, and 2.5 mM probenecid) for 45 minutes at 37° C. Dye was removed, 20 μL of assay buffer was added, and the plate was incubated for 5 minutes at room temperature.
(§1) Ca^2+ flux was measured using the Functional Drug Screening System (FDSS7000, Hamamatsu, Japan). After establishment of a fluorescence baseline for about 3 seconds, the compounds of the present invention were added to the cells, and the response in cells was measured. 2.3 minutes later an EC20 concentration of the mGlu2 receptor agonist glutamate was added to the cells, and the response of the cells was measured for 1.9 minutes; an EC80 concentration of agonist was added and readings taken for an additional 1.7 minutes. All test compounds were dissolved and diluted to a concentration of 10 mM in 100% DMSO. Compounds were then serially diluted 1:3 in DMSO into 10 point concentration response curves, transferred to daughter plates, and further diluted into assay buffer to a 2× stock. Calcium fluorescence measures were recorded as fold over basal fluorescence; raw data was then normalized to the maximal response to glutamate.
(§2) The raw data file containing all time points was used as the data source in the analysis template. This was saved by the FDSS as a tab-delimited text file. Data were normalized using a static ratio function (F/F0) for each measurement of the total 360 values per well divided by each well's initial value. Data were then reduced to peak amplitudes (Max−Initial Min) using a time range that starts approximately 3 seconds prior to the glutamate EC80 addition and continues for approximately 90 seconds. This is sufficient time to capture the peak amplitude of the cellular calcium response. Individual amplitudes were expressed as % ECMax by multiplying each amplitude by 100 and then dividing the product by the mean of the amplitudes derived from the glutamate ECMax-treated wells. IC50 values for test compounds were generated by fitting the normalized values versus the log of the test compound concentration (in mol/L) using a 4 parameter logistic equation where none of the parameters were fixed. Each of the three values collected at each concentration of test compound were weighted evenly.

[2] = target: rat mGlu3 (Rattus norvegicus (Rat), UniProt P31422); assay: mGlu3 Ca2+ flux assay; assay type: cell-based; details: for pIC50: NAM, glutamate EC80, >10,000 = decrease without plateau, >30,000 = no measurable activity; for remaining activity at 30 µM: response at 30 μM test compound as percentage of maximal response to glutamate, read-out: rat mGlu3 Glu max (%)
rat mGlu3, sequence (P31422 23-879): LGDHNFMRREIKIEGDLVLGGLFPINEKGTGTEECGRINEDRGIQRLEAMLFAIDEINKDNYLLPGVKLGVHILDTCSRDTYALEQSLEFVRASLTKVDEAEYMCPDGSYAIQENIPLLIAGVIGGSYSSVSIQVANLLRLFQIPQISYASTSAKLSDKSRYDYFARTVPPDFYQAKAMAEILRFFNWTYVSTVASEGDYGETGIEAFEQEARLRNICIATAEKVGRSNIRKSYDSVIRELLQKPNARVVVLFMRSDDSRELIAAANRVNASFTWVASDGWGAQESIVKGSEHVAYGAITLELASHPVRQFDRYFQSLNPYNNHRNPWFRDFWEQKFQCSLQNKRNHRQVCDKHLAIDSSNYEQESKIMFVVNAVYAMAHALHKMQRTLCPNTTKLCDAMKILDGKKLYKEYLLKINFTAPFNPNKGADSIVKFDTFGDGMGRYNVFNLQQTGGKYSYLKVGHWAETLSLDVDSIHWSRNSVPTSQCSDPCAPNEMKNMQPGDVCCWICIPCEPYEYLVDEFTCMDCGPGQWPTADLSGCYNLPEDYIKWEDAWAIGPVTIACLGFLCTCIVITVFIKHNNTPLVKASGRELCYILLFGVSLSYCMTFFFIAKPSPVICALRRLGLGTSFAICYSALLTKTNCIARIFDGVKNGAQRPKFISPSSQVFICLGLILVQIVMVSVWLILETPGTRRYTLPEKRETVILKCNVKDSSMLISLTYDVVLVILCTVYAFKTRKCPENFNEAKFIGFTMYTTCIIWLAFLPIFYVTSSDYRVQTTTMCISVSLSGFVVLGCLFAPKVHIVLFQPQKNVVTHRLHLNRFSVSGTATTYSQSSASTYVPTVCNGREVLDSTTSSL
Description: Gα15/TREx cells stably expressing rat mGlu3 were plated in black-walled, clear-bottomed, poly-D-lysine coated 384-well plates in 20 μL of assay medium (DMEM containing 10% dialyzed FBS, 20 mM HEPES, 25 ng/mL tetracycline, 100 units/mL penicillin/streptomycin plus 250 ng/mL Fungizone, and 1 mM sodium pyruvate) at a density of 15K cells/well. The cells were grown overnight at 37° C. in the presence of 5% CO2. […] Dye was removed, 20 μL of assay buffer was added, and the plate was incubated for 10 minutes at room temperature.
as §1, with “mGlu3” for “mGlu2”
as §2, with “% EMax” for “% ECMax”, “wells. EC50” for “wells. IC50”

rat mGlu2, sequence (P31421 19-872): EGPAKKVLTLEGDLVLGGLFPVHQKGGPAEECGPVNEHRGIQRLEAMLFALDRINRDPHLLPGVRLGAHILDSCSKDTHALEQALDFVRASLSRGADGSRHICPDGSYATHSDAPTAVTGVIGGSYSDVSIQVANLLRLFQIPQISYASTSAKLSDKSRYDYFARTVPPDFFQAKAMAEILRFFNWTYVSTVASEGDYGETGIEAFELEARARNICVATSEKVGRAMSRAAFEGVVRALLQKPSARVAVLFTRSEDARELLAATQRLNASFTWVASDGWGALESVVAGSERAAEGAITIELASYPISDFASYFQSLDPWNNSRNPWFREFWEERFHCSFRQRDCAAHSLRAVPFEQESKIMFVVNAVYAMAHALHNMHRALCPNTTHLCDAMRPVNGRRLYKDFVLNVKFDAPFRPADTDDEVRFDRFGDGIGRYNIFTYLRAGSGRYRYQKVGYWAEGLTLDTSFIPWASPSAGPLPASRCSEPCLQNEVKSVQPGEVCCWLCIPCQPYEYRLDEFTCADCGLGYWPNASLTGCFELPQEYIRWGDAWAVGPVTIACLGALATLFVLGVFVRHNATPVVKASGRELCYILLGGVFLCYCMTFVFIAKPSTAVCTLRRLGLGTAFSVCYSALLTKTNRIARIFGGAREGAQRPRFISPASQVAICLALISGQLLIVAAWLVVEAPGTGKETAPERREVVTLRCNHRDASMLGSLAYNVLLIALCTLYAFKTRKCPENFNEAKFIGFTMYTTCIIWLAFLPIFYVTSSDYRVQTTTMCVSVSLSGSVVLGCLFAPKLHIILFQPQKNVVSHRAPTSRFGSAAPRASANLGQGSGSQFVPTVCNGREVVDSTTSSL

| SMILES | pIC50 [1] | pIC50 [2] | remaining activity at 30 µM [2] [%] |
| --- | --- | --- | --- |
| O=c1cc(OCCCc2ccccc2)ccn1-c1ccc(F)cc1 [Compound 2, 1-(4-fluorophenyl)-4-(3-phenylpropoxy)pyridin-2(1H)-one] | < 4.52 | 5.27 | 1.95 |
| O=c1cc(OCCSc2ccccc2)ccn1-c1ccc(F)cc1 [Compound 3, 1-(4-fluorophenyl)-4-(2-(phenylthio)ethoxy)pyridin-2(1H)-one] | < 4.52 | 5.41 | 1.42 |
| CN(CCOc1ccn(-c2ccc(F)cc2)c(=O)c1)c1ccccc1 [Compound 4, 1-(4-fluorophenyl)-4-(2-(methyl(phenyl)amino)ethoxy)pyridin-2(1H)-one] | < 4.52 | 5.40 | 0 |
| O=c1cc(OCCOC2CCCC2)ccn1-c1ccc(F)cc1 [Compound 6, 4-(2-(cyclopentyloxy)ethoxy)-1-(4-fluorophenyl)pyridin-2(1H)-one] |  | < 4.52 |  |
| O=c1cc(OCCOC2CCCCC2)ccn1-c1ccc(F)cc1 [Compound 7, 4-(2-(cyclohexyloxy)ethoxy)-1-(4-fluorophenyl)pyridin-2(1H)-one] |  | < 5.00 | 15.5 |
| O=c1cc(OCC[S+]([O-])c2ccccc2)ccn1-c1ccc(F)cc1 (centres unmarked) [Compound 8, 1-(4-fluorophenyl)-4-(2-(phenylsulfinyl)ethoxy)pyridin-2(1H)-one] |  | < 4.52 |  |
| O=c1cc(OCCS(=O)(=O)c2ccccc2)ccn1-c1ccc(F)cc1 [Compound 9, 1-(4-fluorophenyl)-4-(2-(phenylsulfonyl)ethoxy)pyridin-2(1H)-one] |  | < 4.52 |  |
| O=c1cc(OCCOc2ccccc2)ccn1-c1ccccc1F [Compound 10, 1-(2-Fluorophenyl)-4-(2-phenoxyethoxy)pyridin-2-one] | < 4.52 | 5.41 | 1.16 |
| O=c1cc(OCCOc2ccccc2)ccn1-c1ccccn1 [Compound 11, 4-(2-phenoxyethoxy)-2H-[1,2′-bipyridin]-2-one] | < 4.52 | < 4.52 |  |
| O=c1cc(OCCOc2ccccc2)ccn1-c1cccc(F)n1 [Compound 12, 6′-fluoro-4-(2-phenoxyethoxy)-2H-[1,2′-bipyridin]-2-one] | < 4.52 | < 5.00 | 33.2 |
| O=c1cc(OCCOc2ccccc2)ccn1-c1ccncc1 [Compound 13, 4-(2-phenoxyethoxy)-2H-[1,4′-bipyridin]-2-one] | < 4.52 | < 4.52 |  |
| O=c1nc(OCCOc2ccccc2)ccn1-c1ccc(F)cn1 [Compound 16, 1-(5-fluoropyridin-2-yl)-4-(2-phenoxyethoxy)pyrimidin-2(1H)-one] | < 4.52 | < 5.00 | 23.9 |
| N#Cc1ccc(-n2ccc(OCCOc3ccccc3)cc2=O)cc1 [Compound 24, 4-(2-oxo-4-(2-phenoxyethoxy)pyridin-1(2H)-yl)benzonitrile] | < 4.52 | 5.50 | 0.49 |
| O=c1cc(OCCOc2ccccc2)ccn1-c1ccc(F)nc1 [Compound 25, 6′-fluoro-4-(2-phenoxyethoxy)-2H-[1,3′-bipyridin]-2-one] | < 4.52 | 5.17 | -2.95 |
| N#Cc1cncc(-n2ccc(OCCOc3ccccc3)cc2=O)c1 [Compound 26, 2-oxo-4-(2-phenoxyethoxy)-2H-[1,3′-bipyridine]-5′-carbonitrile] | < 4.52 | 5.47 | -5.24 |
| O=c1cc(OCCOc2ccccc2)ccn1-c1cncc(F)c1 [Compound 27, 5′-fluoro-4-(2-phenoxyethoxy)-2H-[1,3′-bipyridin]-2-one] | < 4.52 | 5.73 | 4.56 |
| O=c1cc(OCCOc2ccccc2)cnn1-c1ccc(F)cc1 [Compound 29, 2-(4-Fluorophenyl)-5-(2-phenoxyethoxy)pyridazin-3(2H)-one] | < 4.52 | 5.41 | 5.86 |
| O=c1cc(OCCOc2ccc(F)cc2F)ccn1-c1ccc(F)cc1 [Compound 34, 4-(2-(2,4-difluorophenoxy)ethoxy)-1-(4-fluorophenyl)pyridin-2(1H)-one] | < 4.52 | 5.84 | 1.32 |
| O=c1cc(OCCOc2cc(F)ccc2F)ccn1-c1ccc(F)cc1 [Compound 35, 4-(2-(2,5-difluorophenoxy)ethoxy)-1-(4-fluorophenyl)pyridin-2(1H)-one] | < 4.52 | 5.84 | 2.27 |
| O=c1cc(OCCOc2c(F)cccc2F)ccn1-c1ccc(F)cc1 [Compound 36, 4-(2-(2,6-difluorophenoxy)ethoxy)-1-(4-fluorophenyl)pyridin-2(1H)-one] | < 4.52 | 5.50 | -1.16 |
| O=c1cc(OCCOc2ccccc2Cl)ccn1-c1ccc(F)cc1 [Compound 37, 4-(2-(2-chlorophenoxy)ethoxy)-1-(4-fluorophenyl)pyridin-2(1H)-one] | < 4.52 | 5.74 | 2.05 |
| O=c1cc(OCCOc2cccc(Cl)c2)ccn1-c1ccc(F)cc1 [Compound 38, 4-(2-(3-chlorophenoxy)ethoxy)-1-(4-fluorophenyl)pyridin-2(1H)-one] | < 4.52 | 6.01 | 0.85 |
| O=c1cc(OCCOc2cccnc2F)ccn1-c1ccc(F)cc1 [Compound 40, 1-(4-fluorophenyl)-4-(2-((2-fluoropyridin-3-yl)oxy)ethoxy)pyridin-2(1H)-one] | < 4.52 | 5.32 | -4.22 |
| N#Cc1ccc(OCCOc2ccn(-c3ccc(F)cc3)c(=O)c2)cc1 [Compound 42, 4-(2-((1-(4-fluorophenyl)-2-oxo-1,2-dihydropyridin-4-yl)oxy)ethoxy)benzonitrile] | < 4.52 | 5.95 | 0.74 |
| COCc1ccc(OCCOc2ccn(-c3ccc(F)cc3)c(=O)c2)cc1 [Compound 43, 1-(4-fluorophenyl)-4-(2-(4-(methoxymethyl)phenoxy)ethoxy)pyridin-2(1H)-one] | < 4.52 | < 5.00 | 37.3 |
| O=c1cc(OCCOc2cccnc2)ccn1-c1ccc(F)cc1 [Compound 44, 1-(4-fluorophenyl)-4-(2-(pyridin-3-yloxy)ethoxy)pyridin-2(1H)-one] | < 4.52 | 5.00 | 1.83 |
| O=c1cc(OCCOCc2ccccc2)ccn1-c1ccc(F)cc1 [W, 4-(2-(Benzyloxy)ethoxy)-1-(4-fluorophenyl)pyridin-2(1H)-one] |  | 4.89 | 14.5 |
